Measurements reported in patent publication US12495798B2, “Nicotinamide compound and herbicidal composition comprising compound” (KOREA RESEARCH INSTITUTE OF CHEMICAL TECHNOLOGY, priority 2019, dated 2025).

Assays:
Type in all cases: in vivo
barnyard grass = assay: Herbicidal activity test against upland field weeds (soil treatment test); set-up: key to Soil treatment herbicidal activity, barnyard grass: 0 (no control); 100 (complete control); settings: 50 g ai/ha, scale 0 (no control) to 100 (complete control); for pest or weed control at 50 g/ha: Echinochloa crus-galli
How it was run: (§1)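 Pre-emergence soil surface spray, day after sowing, into sandy loam pots with fertilizer; compounds at 50 or 75 g a.i./ha in 50% acetone, 0.1% Tween-20. Greenhouse at 30±5 °C, 14/10 h light/dark; visual control rated 0–100 against untreated after 14 days (21 if needed).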

wheat = assay: Phytotoxicity test for field crops (soil treatment test); set-up: key: 0 (no harm); 9 (complete withered)
How it was run: (§2)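 Crops sown in sterilized horticultural soil (pH 6.1, organic material 1.0%) with mixed fertilizer (N:P:K=17:21:17); one day after sowing, soil sprayed with compound in 33% acetone/0.1% Tween-20 at 19˜300 g a.i./ha. Greenhouse at 30±5° C, 14/10 h light/dark; injury scored visually 0–9 versus untreated control at 10 and 20 days.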

rice = assay: as above; set-up: key: 0 (no harm); 9 (complete withered)
How it was run: as §2

soybean = assay: as above; set-up: key: 0 (no harm); 9 (complete withered)
How it was run: as §2

cotton = assay: as above; set-up: key: 0 (no harm); 9 (complete withered)
How it was run: as §2

corn = assay: as above; set-up: key: 0 (no harm); 9 (complete withered)
How it was run: as §2

velvetleaf = assay: Herbicidal activity test against upland field weeds (foliar treatment test); set-up: key to Foliar treatment herbicidal activity, velvet leaf: 0 (no control); 100 (complete control); settings: 50 g ai/ha; for pest or weed control at 50 g/ha: Abutilon theophrasti, scale 0-100, read-out: Foliar treatment herbicidal activity, velvet leaf
How it was run: (§3)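 Greenhouse-grown plants (30±5 °C, 14/10 h light/dark) foliar hand-sprayed with compound in 50% acetone, 0.1% Tween-20 at 50 or 75 g a.i./ha. Control visually scored 0 (none) to 100 (complete) versus untreated after 14 days, or 21 days if needed.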

indian jointvetch = assay: Herbicidal activity test against upland field weeds (soil treatment test); set-up: key to Soil treatment herbicidal activity, Indian jointvetch: 0 (no control); 100 (complete control); settings: 50 g ai/ha, scale 0 (no control) to 100 (complete control)
How it was run: as §1

crabgrass [1] = assay: Herbicidal activity test against upland field weeds (foliar treatment test); set-up: key to Foliar treatment herbicidal activity, Crabgrass: 0 (no control); 100 (complete control); settings: 50 g ai/ha, scale 0-100; for pest or weed control at 50 g/ha: Digitaria sanguinalis
How it was run: as §3

bindweed [2] = assay: Herbicidal activity test against upland field weeds (soil treatment test); set-up: key to Soil treatment herbicidal activity, Bindweed: 0 (no control); 100 (complete control); settings: 50 g ai/ha, scale 0 (no control) to 100 (complete control)
How it was run: as §1

crabgrass [3] = assay: as above; set-up: key to Soil treatment herbicidal activity, Crabgrass: 0 (no control); 100 (complete control); settings: 50 g ai/ha, scale 0 (no control) to 100 (complete control)
How it was run: as §1

bindweed [4] = assay: Herbicidal activity test against upland field weeds (foliar treatment test); settings: 50 g ai/ha, scale 0-100
How it was run: as §3

quack grass = assay: as above; set-up: key to Foliar treatment herbicidal activity, quack grass: 0 (no control); 100 (complete control); settings: 50 g ai/ha, scale 0-100
How it was run: as §3

[5] = 50 g ai/ha, Wheat (10 days after treatment)
[6] = 50 g ai/ha, Wheat (20 days after treatment)
[7] = 100 g ai/ha, Wheat (10 days after treatment)
[8] = 100 g ai/ha, Wheat (20 days after treatment)
[9] = 50 g ai/ha, Rice (10 days after treatment)
[10] = 50 g ai/ha, Rice (20 days after treatment)
[11] = 100 g ai/ha, Rice (10 days after treatment)
[12] = 100 g ai/ha, Rice (20 days after treatment)
[13] = 50 g ai/ha, Soybean (10 days after treatment)
[14] = 50 g ai/ha, Soybean (20 days after treatment)
[15] = 100 g ai/ha, Soybean (10 days after treatment)
[16] = 100 g ai/ha, Soybean (20 days after treatment)
[17] = 50 g ai/ha, Cotton (10 days after treatment)
[18] = 50 g ai/ha, Cotton (20 days after treatment)
[19] = 100 g ai/ha, Cotton (10 days after treatment)
[20] = 100 g ai/ha, Cotton (20 days after treatment)
[21] = 50 g ai/ha, Corn (10 days after treatment)
[22] = 50 g ai/ha, Corn (20 days after treatment)
[23] = 100 g ai/ha, Corn (10 days after treatment)
[24] = 100 g ai/ha, Corn (20 days after treatment)

Row | Compound | Soil treatment phytotoxicity, Wheat (wheat; [5]) | Soil treatment phytotoxicity, Wheat (wheat; [6]) | Soil treatment phytotoxicity, Wheat (wheat; [7]) | Soil treatment phytotoxicity, Wheat (wheat; [8]) | Soil treatment phytotoxicity, Rice (rice; [9]) | Soil treatment phytotoxicity, Rice (rice; [10]) | Soil treatment phytotoxicity, Rice (rice; [11]) | Soil treatment phytotoxicity, Rice (rice; [12]) | Soil treatment phytotoxicity, Soybean (soybean; [14]) | Soil treatment phytotoxicity, Soybean (soybean; [16]) | Soil treatment phytotoxicity, Cotton (cotton; [17]) | Soil treatment phytotoxicity, Cotton (cotton; [18]) | Soil treatment phytotoxicity, Cotton (cotton; [19]) | Soil treatment phytotoxicity, Cotton (cotton; [20]) | Soil treatment phytotoxicity, Corn (corn; [21]) | Soil treatment phytotoxicity, Corn (corn; [22]) | Soil treatment phytotoxicity, Corn (corn; [23]) | Soil treatment phytotoxicity, Corn (corn; [24]) | Soil treatment herbicidal activity, Indian jointvetch (indian jointvetch) | Soil treatment herbicidal activity, Bindweed (bindweed [2]) | other results
1 | Cn1ncnc1COc1nc(C(F)(F)F)ccc1C(=O)Nc1nnnn1C [Compound No. 1-45, 2-((1-methyl-1H-1,2,4-triazol-5-yl)methoxy)-N-(1-methyl-1H-tetrazol-5-yl)-6-(trifluoromethyl)nicotinamide] | 0 | 0 | 0 | 0 | 9 | 9 | 9 | 9 | 0 | 0 | 1 | 4 | 3 | 5 | 0 | 0 | 1 | 0 | 0 | 0 | pest or weed control at 50 g/ha (barnyard grass): 98%; Soil treatment phytotoxicity, Soybean (soybean; [13]): 0; Soil treatment phytotoxicity, Soybean (soybean; [15]): 0; pest or weed control at 50 g/ha (velvetleaf): 80%; pest or weed control at 50 g/ha (crabgrass [1]): 95%; Soil treatment herbicidal activity, Crabgrass (crabgrass [3]): 100; pest or weed control at 50 g/ha (bindweed [4]): 98%; pest or weed control at 50 g/ha (quack grass): 40%
2 | Cn1nnc(CSCc2nc(C(F)F)ccc2C(=O)Nc2nnnn2C)n1 [Compound No. 2-108, 6-(difluoromethyl)-N-(1-methyl-1H-tetrazol-5-yl)-2-((((2-methyl-2H-tetrazol-5-yl)methyl)thio)methyl)nicotinamide] | 0 | 0 | 0 | 0 | 0 | 0 | 0 | 0 | 0 | 3 | 0 | 1 | 0 | 3 | 0 | 0 | 0 | 0 | 0 | 0 | Soil treatment herbicidal activity, barnyard grass (barnyard grass): 0; pest or weed control at 50 g/ha (velvetleaf): 30%; pest or weed control at 50 g/ha (crabgrass [1]): 60%; Soil treatment herbicidal activity, Crabgrass (crabgrass [3]): 0; pest or weed control at 50 g/ha (bindweed [4]): 90%; Foliar treatment herbicidal activity, quack grass (quack grass): 0
3 | Cn1nnc(COc2nc(C(F)(F)F)ccc2C(=O)Nc2nnnn2C)n1 [Compound No. 2-1, N-(1-methyl-1H-tetrazol-5-yl)-2-((2-methyl-2H-tetrazol-5-yl)methoxy)-6-(trifluoromethyl)nicotinamide] | 0 | 0 | 0 | 0 | 3 | 3 | 5 | 5 |  |  | 1 | 2 | 4 | 7 | 0 | 0 | 0 | 0 | 0 | 0 | Soil treatment herbicidal activity, barnyard grass (barnyard grass): 0; pest or weed control at 50 g/ha (velvetleaf): 30%; pest or weed control at 50 g/ha (crabgrass [1]): 95%; Soil treatment herbicidal activity, Crabgrass (crabgrass [3]): 0; pest or weed control at 50 g/ha (bindweed [4]): 60%; Foliar treatment herbicidal activity, quack grass (quack grass): 0
4 | Cn1nnnc1COc1nc(C(F)(F)F)ccc1C(=O)Nc1nnnn1C [Compound No. 1-1, N-(1-methyl-1H-tetrazol-5-yl)-2-((1-methyl-1H-tetrazol-5-yl)methoxy)-6-(trifluoromethyl)nicotinamide] | 0 | 0 | 0 | 1 | 1 | 7 | 3 | 9 | 5 | 7 | 2 | 6 | 2 | 7 | 0 | 0 | 0 | 0 | 0 | 0 | pest or weed control at 50 g/ha (barnyard grass): 95%; Soil treatment phytotoxicity, Soybean (soybean; [13]): 3; Soil treatment phytotoxicity, Soybean (soybean; [15]): 3; pest or weed control at 50 g/ha (velvetleaf): 98%; Foliar treatment herbicidal activity, Crabgrass (crabgrass [1]): 100; pest or weed control at 50 g/ha (crabgrass [3]; Digitaria sanguinalis): 98%; Foliar treatment herbicidal activity, quack grass (quack grass): 0
5 | Cn1cnc(COCc2nc(C(F)F)ccc2C(=O)Nc2nnnn2C)n1 [Compound No. 2-85] | 0 | 0 | 0 | 0 | 0 | 0 | 1 | 0 | 0 | 0 | 0 | 0 | 2 | 0 | 0 | 0 | 0 | 0 | 55 | 35 | Soil treatment herbicidal activity, barnyard grass (barnyard grass): 0; Soil treatment phytotoxicity, Soybean (soybean; [13]): 2; Soil treatment phytotoxicity, Soybean (soybean; [15]): 3; Foliar treatment herbicidal activity, velvet leaf (velvetleaf; scale 0-100): 100; Foliar treatment herbicidal activity, Crabgrass (crabgrass [1]): 60; Soil treatment herbicidal activity, Crabgrass (crabgrass [3]): 0; Foliar treatment herbicidal activity, Bindweed (bindweed [4]): 99
